Measured values published in paper PMC5516711 (Evidence-based Complementary and Alternative Medicine : eCAM, 2017).
Read-outs that look alike come from different tables or passages of the source.

How the values were obtained:
[1] = Pharmacokinetic study in rats after oral administration of Naoxintong capsule (NXTC), plasma levels by HPLC-MS/MS; conditions: for Detection in rat plasma after oral administration of NXTC: doses of 0.5 g kg^−1 and 1.5 g kg^−1, at the present LLOQ level; for AUC(0-t) / Cmax / Tmax / AUC(0-inf) / MRT inf / MRT last / half-life: male, Sprague-Dawley, rat, plasma, po
Method: (§1) The LC-MS/MS analysis was carried out on an Agilent 1200 system (Agilent Corporation, USA) coupled with an API 3200 triple quadrupole mass spectrometer with a Turbo Ion Spray Ionization (ESI) source (Concord, Ontario, Canada). The Agilent 1200 system consisted of a vacuum degasser (G1322A), a binary pump (G1312A), and a Hip-ALS autosampler (G13678). Chromatographic separation was performed on an Eclipse plus C18 column (4.6 × 100 mm, 1.8 μm) with a security guard C18 column (2.1 mm × 12.5 mm, 5 μm) (Agilent, USA). The mobile phases consisted of acetonitrile (A) and formic acid aqueous solution (B). The linear gradient was 30% A-30% A (0–10 min); 30%–80% A (10–15 min); 80%–95% A (15–20 min); 95%-95% A (20–30 min). Reequilibration time after gradient elution was 5 min. The column temperature was maintained at 25°C and the flow rate was set at 0.300 mL min^−1. ESI-MS spectra were acquired in both negative and positive ion multiple reaction monitoring (MRM) mode. Data collection and peak calculations were performed by Analyst 1.4.2 software (AB MDS Sciex).
(§2) The ISs solution (10 μL) and formic acid (10 μL) were added to plasma samples (100 μL). Acetonitrile (370 μL) was used to precipitate protein. The mixed solution was swirled for 1 min and then centrifuged at 14000 rpm for 10 min. The supernatant fluid was collected and then evaporated to dryness with a stream of N2 gas in a 40°C water bath. The residue was reconstituted in 100 μL methanol, swirled for 1 min. The sample was centrifuged at 14000 rpm for 10 min. 10 μL of the supernatant was injected into the LC-MS/MS system for analysis.
(§3) Rats were fasted for 12 h with free access to water before the experiment. NXTC extracts were orally administrated to ten rats at single time dose (0.5 g kg^−1) and to ten rats at triple doses (1.5 g kg^−1). The blood samples were collected at 5, 10, 15, 30, 45, 60, 90, 120, 240, 480, 720, and 1440 min after oral administration. Blood samples (200 μL) were collected from the vein of the eye sockets into heparinized tubes after the rats were anesthetized with ethyl ether. The samples were immediately centrifuged at 7,000 rpm, 10°C for 10 min. Then the plasma samples obtained were stored at −20°C.
(§4) Some pharmacokinetic parameters were calculated by DAS1.0 software (Drug and Statistics 1.0, Medical College of Wannan, China). An appropriate model was employed to calculate the following parameters: area under the plasma concentration versus time curve from zero to last sampling time (AUC0→24 h) and infinity (AUC0→∞) and mean retention time from zero to last sampling time (MRT0→24 h). […] All data were shown as average value ± standard deviation.

[2] = in vivo
Method: as §1, §2, §3, §4

[3] = rat, in vivo, po; cited from earlier work

Row | Molecule | Detection in rat plasma after oral administration of NXTC [1] | AUC(0-inf) ([1]; 0.5 g/kg) | AUC(0-t) ([1]; 0.5 g/kg) | Cmax ([1]; 0.5 g/kg) | MRT inf ([1]; 0.5 g/kg) | MRT last ([1]; 0.5 g/kg) | Tmax ([1]; 0.5 g/kg) | half-life ([1]; 0.5 g/kg) | AUC(0-inf) ([1]; 1.5 g/kg) | AUC(0-t) ([1]; 1.5 g/kg) | Cmax ([1]; 1.5 g/kg) | MRT inf ([1]; 1.5 g/kg) | MRT last ([1]; 1.5 g/kg) | Tmax ([1]; 1.5 g/kg) | half-life ([1]; 1.5 g/kg) | other results
1 | N#C[C@H](O[C@@H]1O[C@H](CO[C@@H]2O[C@H](CO)[C@@H](O)[C@H](O)[C@H]2O)[C@@H](O)[C@H](O)[C@H]1O)c1ccccc1 [Amygdalin, amygdalin] | not detected |  |  |  |  |  |  |  |  |  |  |  |  |  |  | 
2 | CC(C)(O)[C@@H]1CC[C@](C)([C@H]2[C@@H](O)C[C@@]3(C)[C@@H]4C[C@H](O[C@@H]5O[C@H](CO)[C@@H](O)[C@H](O)[C@H]5O)[C@H]5C(C)(C)[C@@H](O[C@@H]6OC[C@@H](O)[C@H](O)[C@H]6O)CC[C@@]56C[C@@]46CC[C@]23C)O1 [Astragaloside IV, astragaloside IV] | not detected |  |  |  |  |  |  |  |  |  |  |  |  |  |  | 
3 | COc1ccc(-c2coc3cc(O)ccc3c2=O)cc1 [Formononetin, formononetin] | could be detected | 0.15 ± 0.09 ng·h/mL | 0.08 ± 0.05 ng·h/mL | 0.11 ± 0.05 ng/mL | 1.67 ± 1.53 h | 0.56 ± 0.23 h | 0.49 ± 0.33 h | 2.96 ± 5.61 h | 3.06 ± 3.07 ng·h/mL | 1.47 ± 1.82 ng·h/mL | 0.37 ± 0.32 ng/mL | 25.9 ± 31.8 h | 5.16 ± 3.68 h | 0.38 ± 0.25 h | 1.42 ± 0.69 h | AUC(0-t) [1]: < 1 ng·h/mL; Cmax [1]: < 1 ng/mL; Tmax [1]: < 1 h
4 | OC[C@H]1O[C@@H](Oc2cc(O)cc(/C=C/c3ccc(O[C@@H]4O[C@H](CO)[C@@H](O)[C@H](O)[C@H]4O)cc3O)c2)[C@H](O)[C@@H](O)[C@@H]1O [Mulberroside A, mulberroside A] | not detected |  |  |  |  |  |  |  |  |  |  |  |  |  |  | 
5 | Cc1coc2c1C(=O)C(=O)c1c-2ccc2c1CCCC2(C)C [Tanshinone IIA, tanshinone IIA] | could be detected | 27.7 ± 36.2 ng·h/mL | 8.15 ± 4.85 ng·h/mL | 1.61 ± 1.11 ng/mL | 26.8 ± 31.5 h | 5.48 ± 1.66 h | 0.54 ± 0.29 h | 11.4 ± 15.8 h | 83 ± 81 ng·h/mL | 35.4 ± 42.2 ng·h/mL | 4.18 ± 3.34 ng/mL | 27.2 ± 20.6 h | 5.75 ± 3.36 h | 3.17 ± 3.75 h | 13.2 ± 10.4 h | 
6 | C[C@H]1COC2=C1C(=O)C(=O)c1c2ccc2c1CCCC2(C)C [Cryptotanshinone, cryptotanshinone] | could be detected | 4.72 ± 5.99 ng·h/mL | 1.49 ± 0.76 ng·h/mL | 0.61 ± 0.23 ng/mL | 20.7 ± 27.7 h | 3.06 ± 1.47 h | 0.51 ± 0.4 h | 2.93 ± 3.89 h | 55.2 ± 59.8 ng·h/mL | 24.8 ± 27.9 ng·h/mL | 2.78 ± 2.52 ng/mL | 19 ± 17.5 h | 7.37 ± 3.95 h | 0.6 ± 0.2 h | 17.8 ± 17.1 h | half-life ([1]; 1.5 g kg^−1): 17.8 ± 17.1 h
7 | O=C(O)/C=C/c1ccc(O)c(O)c1 [Caffeic acid, caffeic acid] |  | 19.6 ± 21.1 ng·h/mL | 11.7 ± 9.6 ng·h/mL | 9.8 ± 4.4 ng/mL | 4.02 ± 4.96 h | 1.33 ± 1.19 h | 0.18 ± 0.03 h | 0.83 ± 0.33 h | 28.5 ± 20 ng·h/mL | 26 ± 18.6 ng·h/mL | 15.2 ± 3.08 ng/mL | 2.72 ± 1.82 h | 2.03 ± 1.43 h | 0.2 ± 0.04 h | 0.7 ± 0.35 h | Tmax [1]: < 1 h
8 | salvianolic acid B | not detected |  |  |  |  |  |  |  |  |  |  |  |  |  |  | 
9 | C[C@@]12C[C@@]3(O)O[C@@H](O1)[C@]1(COC(=O)c4ccccc4)[C@H]3C[C@@]12O[C@@H]1O[C@H](CO)[C@@H](O)[C@H](O)[C@H]1O [Paeoniflorin, paeoniflorin] | not detected |  |  |  |  |  |  |  |  |  |  |  |  |  |  | 
10 | COc1cc(/C=C/C(=O)O)ccc1O [Ferulic acid, ferulic acid] |  |  |  |  |  |  |  |  |  |  |  |  |  |  |  | Detection in rat plasma after oral administration of NXTC [2]: could be detected; Cmax ([2]; rat, po): 12.07 ± 4.61 ng/mL; Tmax ([2]; rat, po): less than 1 h; AUC(0–24 h) ([2]; rat, po, 0.5 g/kg): 3.20 ± 1.55 ng/mL∗h; AUC(0–∞) ([2]; rat, po, 0.5 g/kg): 4.19 ± 2.30 ng/mL∗h; C max ([2]; rat, po, 0.5 g/kg): 10.93 ± 4.67 ng/mL; MRT(0–24 h) ([2]; rat, po, 0.5 g/kg): 0.28 ± 0.10 h; MRT(0–∞) ([2]; rat, po, 0.5 g/kg): 0.48 ± 0.33 h; T 1/2 ([2]; rat, po, 0.5 g/kg): 0.20 ± 0.19 h; T max ([2]; rat, po, 0.5 g/kg): 0.17 ± 0.00 h; AUC(0–24 h) ([2]; rat, po, 1.5 g/kg): 8.33 ± 3.87 ng/mL∗h; AUC(0–∞) ([2]; rat, po, 1.5 g/kg): 14.4 ± 12.8 ng/mL∗h; C max ([2]; rat, po, 1.5 g/kg): 12.07 ± 4.61 ng/mL; MRT(0–24 h) ([2]; rat, po, 1.5 g/kg): 0.81 ± 0.38 h; MRT(0–∞) ([2]; rat, po, 1.5 g/kg): 3.80 ± 6.11 h; T 1/2 ([2]; rat, po, 1.5 g/kg): 0.42 ± 0.15 h; T max ([2]; rat, po, 1.5 g/kg): 0.19 ± 0.04 h; mean Tmax [3]: 1.8 min
11 | CC(C)(O)CC[C@@H](O)[C@](C)(O)[C@H]1CC[C@@]2(O)C3=CC(=O)[C@@H]4C[C@@H](O)[C@@H](O)C[C@]4(C)[C@H]3CC[C@]12C [Ecdysterone, ecdysterone] | not detected |  |  |  |  |  |  |  |  |  |  |  |  |  |  | 
